In patent US8759342B2, “Benzo[1,4]oxazin-3-one, benzo[1,4]thiazin-3-one and quinolin-2-one urotensin II receptor antagonists” (Janssen Pharmaceutica NV, priority 2006, dated 2014):
pIC50, pKi: −log10 of the molar value.

Experiments:
[1] = target: T1, rat GPR14 (U-II receptor) (Rattus norvegicus, UniProt P49684); assay: Calcium flux assay (FLIPR); type: cell-based; conditions: Inhibition of acetyl-cyclic[Cys-Phe-Trp-Lys-(2-Nal)-Cys]-NH2 (1 nM) induced Ca2+ mobilization (FLIPR) in CHO cells transfected with rat UII receptor; 5 min incubation
T1 construct: expressed in transfected cells
T1 sequence (P49684 1-386): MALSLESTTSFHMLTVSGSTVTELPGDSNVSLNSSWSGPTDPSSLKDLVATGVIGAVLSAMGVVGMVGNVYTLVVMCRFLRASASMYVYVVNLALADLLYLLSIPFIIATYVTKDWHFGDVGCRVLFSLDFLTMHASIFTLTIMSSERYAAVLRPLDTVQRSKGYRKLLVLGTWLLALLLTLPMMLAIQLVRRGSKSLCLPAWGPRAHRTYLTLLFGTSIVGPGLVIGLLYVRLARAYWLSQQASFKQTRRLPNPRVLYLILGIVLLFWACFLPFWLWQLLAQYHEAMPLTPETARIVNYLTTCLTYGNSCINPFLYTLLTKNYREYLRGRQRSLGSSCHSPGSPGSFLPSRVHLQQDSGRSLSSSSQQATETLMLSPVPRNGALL
Source text: To derive these cells, the complete coding sequence of rat […] was amplified by nested PCR from rat heart marathon-Ready cDNA. […] The PCR products were cloned into pcDNA3 (Invitrogen) digested with EcoR I and Xba I. Clones containing rat U-II receptor were verified by complete sequencing of the U-II receptor insert to ensure a lack of PCR-introduced errors. The constructed vector was transfected into CHO cells by using lipofectamine (GIBCO BRL). CHO cells with high expression of rat U-II receptor were selected and established as stable cell lines by using G418. CHO cells were seeded at 25,000 cells per well into 96-well, black-wall, clear-bottom microtiter plates 24 hrs before assay. Cells in culture media (DMEM/F12 containing 15 mM HEPES, L-glutamine, pyridoxine hydrochloride; 10% fetal bovine serum; 1 mg/mL G418 sulfate; antibiotic-antimycotic; pH 7.4) were loaded with proprietary dye, from the FLIPR Calcium Assay Kit (Molecular Devices), prepared in assay buffer (Hanks Balanced Salts Solution, 20 mM HEPES, 0.1% BSA, 2.5 mM probenecid, pH 7.4), and incubated for 1 hr at 37° C. Calcium mobilization determinations were performed at room temperature (23° C.).

Human UII receptors = target: T2, Human UII receptors (Homo sapiens, UniProt Q9UKP6); assay: Human radioligand binding assay, (125I)-U-II on HSMM; conditions: 0.150 nM (125I)-U-II, intact Human Skeletal Muscle Myoblasts, 3 hrs, 25° C.; read-out: Ki
T2 construct: host or cells: Human Skeletal Muscle Myoblasts (HSMM), intact adherent cells
T2 sequence (Q9UKP6 1-389): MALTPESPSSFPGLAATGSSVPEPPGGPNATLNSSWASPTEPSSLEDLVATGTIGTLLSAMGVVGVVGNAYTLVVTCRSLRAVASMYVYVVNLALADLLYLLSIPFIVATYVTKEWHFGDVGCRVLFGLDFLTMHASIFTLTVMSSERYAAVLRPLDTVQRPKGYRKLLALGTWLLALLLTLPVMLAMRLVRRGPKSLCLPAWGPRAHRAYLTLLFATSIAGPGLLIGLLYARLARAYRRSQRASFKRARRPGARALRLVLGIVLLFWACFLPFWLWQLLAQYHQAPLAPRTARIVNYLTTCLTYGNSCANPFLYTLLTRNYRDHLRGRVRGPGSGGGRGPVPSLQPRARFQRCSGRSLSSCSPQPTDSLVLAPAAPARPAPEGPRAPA
Procedure: Human Skeletal Muscle Myoblasts (HSMM) were obtained from Cambrex, and were cultured according to manufacturer's instruction. Cell viability was examined by trypan blue exclusion. Cells at less than 4 passages were used in all studies. […] The binding medium used was Dulbecco's modified Eagle's medium (DMEM) containing 2 mg/ml BSA and 25 mM HEPES (pH 7.4). […] The cells were washed 4× with the binding medium and solubilized in 1% SDS and 0.5 N NaOH. Radioactivity was quantified by gamma counting.

Compound	pIC50 [1]	pKi (Human UII receptors)
CC(C)(C)OC(=O)NCCCCCNC(=O)c1cc(Cl)ccc1C1=CC2CCC(C1)N2CCN1C(=O)COc2ccccc21 (centres unmarked) [Cpd 95, [5-(5-chloro-2-{8-[2-(3-oxo-2,3-dihydro-benzo[1,4]oxazin-4-yl)-ethyl]-8-aza-bicyclo[3.2.1]oct-2-en-3-yl}-benzoylamino)-pentyl]-carbamic acid tert-butyl ester]	6.19	5.89
O=C(NCCc1ccccc1)c1ccccc1C1CCN(CCN2C(=O)COc3ccccc32)CC1 [Cpd 1, 2-{1-[2-(3-oxo-2,3-dihydro-benzo[1,4]oxazin-4-yl)-ethyl]-piperidin-4-yl}-N-phenethyl-benzamide]	5.12	5.54
O=C(NCCCCCNC(=O)c1cc(Cl)ccc1C1CCN(CCN2C(=O)COc3ccccc32)CC1)OCc1ccccc1 [Cpd 75, [5-(5-chloro-2-{1-[2-(3-oxo-2,3-dihydro-benzo[1,4]oxazin-4-yl)-ethyl]-piperidin-4-yl}-benzoylamino)-pentyl]-carbamic acid benzyl ester]	7.40	7.47
O=C(NCC1CCN(C(=O)OCc2ccccc2)CC1)c1cc(Cl)ccc1C1CCN(CCN2C(=O)COc3ccccc32)CC1 [Cpd 63, 4-[(5-chloro-2-{1-[2-(3-oxo-2,3-dihydro-benzo[1,4]oxazin-4-yl)-ethyl]-piperidin-4-yl}-benzoylamino)-methyl]-piperidine-1-carboxylic acid benzyl ester]	6.40	7.27
CC(C)(C)OC(=O)NCCCCCNC(=O)c1cc(Cl)ccc1C1CC2CCC(C1)N2CCN1C(=O)COc2ccccc21 (centres unmarked) [Cpd 100, [5-(5-chloro-2-{8-[2-(3-oxo-2,3-dihydro-benzo[1,4]oxazin-4-yl)-ethyl]-8-aza-bicyclo[3.2.1]oct-3-yl}-benzoylamino)-pentyl]-carbamic acid tert-butyl ester]	6.35	5.92
CC(C)(C)OC(=O)NCCCCCCNC(=O)c1cc(Cl)ccc1C1CCN(CCN2C(=O)COc3ccccc32)CC1 [Cpd 74, [6-(5-chloro-2-{1-[2-(3-oxo-2,3-dihydro-benzo[1,4]oxazin-4-yl)-ethyl]-piperidin-4-yl}-benzoylamino)-hexyl]-carbamic acid tert-butyl ester]	7.35	7.00
O=C(NCCc1ccc2ccccc2c1)c1cc(Cl)ccc1C1CCN(CCN2C(=O)COc3ccccc32)CC1 [Cpd 61, 5-chloro-N-(2-naphthalen-2-yl-ethyl)-2-{1-[2-(3-oxo-2,3-dihydro-benzo[1,4]oxazin-4-yl)-ethyl]-piperidin-4-yl}-benzamide]	5.70	6.59
O=C(NCCCc1ccccc1)c1ccccc1C1CCN(CCN2C(=O)COc3ccccc32)CC1 [Cpd 3]	5.38	6.48
CC(C)(C)OC(=O)N1CCC(CNC(=O)c2cc(Cl)ccc2C2CCN(CCN3C(=O)COc4ccccc43)CC2)CC1 [Cpd 58, 4-[(5-chloro-2-{1-[2-(3-oxo-2,3-dihydro-benzo[1,4]oxazin-4-yl)-ethyl]-piperidin-4-yl}-benzoylamino)-methyl]-piperidine-1-carboxylic acid tert-butyl ester]	6.22	6.85
COc1cc(CCNC(=O)c2ccccc2C2CCN(CCN3C(=O)COc4ccccc43)CC2)cc(OC)c1 [Cpd 17, N-[2-(3,5-dimethoxy-phenyl)-ethyl]-2-{1-[2-(3-oxo-2,3-dihydro-benzo[1,4]oxazin-4-yl)-ethyl]-piperidin-4-yl}-benzamide]	5.15	
O=C(NCCCCCNC(=O)c1cc(Cl)ccc1C1CCN(CCN2C(=O)COc3ccccc32)CC1)Nc1ccccc1 [Cpd 81, 5-chloro-2-{1-[2-(3-oxo-2,3-dihydro-benzo[1,4]oxazin-4-yl)-ethyl]-piperidin-4-yl}-N-[5-(3-phenyl-ureido)-pentyl]-benzamide]	6.28	
O=C1COc2ccccc2N1CCN1CCC(C(=O)NCc2ccccc2)(c2ccccc2)CC1 [Cpd 104, 1-[2-(3-oxo-2,3-dihydro-benzo[1,4]oxazin-4-yl)-ethyl]-4-phenyl-piperidine-4-carboxylic acid benzylamide]	4.59	
O=C(NCCCn1ccnc1)c1ccccc1C1CCN(CCN2C(=O)COc3ccccc32)CC1 [Cpd 48, N-(3-imidazol-1-yl-propyl)-2-{1-[2-(3-oxo-2,3-dihydro-benzo[1,4]oxazin-4-yl)-ethyl]-piperidin-4-yl}-benzamide]	4.37	
O=C(NCCCN1CCCC1=O)c1ccccc1C1CCN(CCN2C(=O)COc3ccccc32)CC1 [Cpd 51, 2-{1-[2-(3-oxo-2,3-dihydro-benzo[1,4]oxazin-4-yl)-ethyl]-piperidin-4-yl}-N-[3-(2-oxo-pyrrolidin-1-yl)-propyl]-benzamide]	4.66	
O=C(NCCc1ccccn1)c1ccccc1C1CCN(CCN2C(=O)COc3ccccc32)CC1 [Cpd 42, 2-{1-[2-(3-oxo-2,3-dihydro-benzo[1,4]oxazin-4-yl)-ethyl]-piperidin-4-yl}-N-(2-pyridin-2-yl-ethyl)-benzamide]	4.70	
O=C(NCCc1c[nH]c2ccccc12)c1cc(Cl)ccc1C1CCN(CCN2C(=O)COc3ccccc32)CC1 [Cpd 62, 5-chloro-N-[2-(1H-indol-3-yl)-ethyl]-2-{1-[2-(3-oxo-2,3-dihydro-benzo[1,4]oxazin-4-yl)-ethyl]-piperidin-4-yl}-benzamide]	6.05	
O=C(NCCc1ccccc1Cl)c1ccccc1C1CCN(CCN2C(=O)COc3ccccc32)CC1 [Cpd 8, N-[2-(2-chloro-phenyl)-ethyl]-2-{1-[2-(3-oxo-2,3-dihydro-benzo[1,4]oxazin-4-yl)-ethyl]-piperidin-4-yl}-benzamide]	4.85	
COc1cccc(CCNC(=O)c2ccccc2C2CCN(CCN3C(=O)COc4ccccc43)CC2)c1 [Cpd 6, N-[2-(3-methoxy-phenyl)-ethyl]-2-{1-[2-(3-oxo-2,3-dihydro-benzo[1,4]oxazin-4-yl)-ethyl]-piperidin-4-yl}-benzamide]	5.00	
O=C1COc2ccccc2N1CCN1CCC(c2cccc(F)c2)CC1 [Cpd 88, 4-{2-[4-(3-fluoro-phenyl)-piperidin-1-yl]-ethyl}-4H-benzo[1,4]oxazin-3-one]	4.55	
O=C(NCCN1CCCCC1)c1cc(Cl)ccc1C1CCN(CCN2C(=O)COc3ccccc32)CC1 [Cpd 71, 5-chloro-2-{1-[2-(3-oxo-2,3-dihydro-benzo[1,4]oxazin-4-yl)-ethyl]-piperidin-4-yl}-N-(2-piperidin-1-yl-ethyl)-benzamide]	6.57	
O=C(NCc1ccccc1)c1ccccc1C1CCN(CCN2C(=O)COc3ccccc32)CC1 [Cpd 2, N-benzyl-2-{1-[2-(3-oxo-2,3-dihydro-benzo[1,4]oxazin-4-yl)-ethyl]-piperidin-4-yl}-benzamide]	5.10	
COCCNC(=O)c1ccccc1C1CCN(CCN2C(=O)COc3ccccc32)CC1 [Cpd 36, N-(2-methoxy-ethyl)-2-{1-[2-(3-oxo-2,3-dihydro-benzo[1,4]oxazin-4-yl)-ethyl]-piperidin-4-yl}-benzamide]	4.60	
CC(C)NC(=O)NCCCCCNC(=O)c1cc(Cl)ccc1C1CCN(CCN2C(=O)COc3ccccc32)CC1 [Cpd 80, 5-chloro-N-[5-(3-isopropyl-ureido)-pentyl]-2-{1-[2-(3-oxo-2,3-dihydro-benzo[1,4]oxazin-4-yl)-ethyl]-piperidin-4-yl}-benzamide]	6.68	
